Measured values published in patent publication US12310967B2, “Compositions and methods of treatment for neurological disorders comprising motor neuron diseases” (Gliapharm SA, priority 2017, dated 2025).

Columns and labels:
[1] = system: primary astrocytes; experiment: High throughput screening (HTS) for lactate secretion: acidification of extracellular medium (SNARF5); format: cell-based, mouse; design: key to Score / HTS Score (SNARF5) / Score_SNARF: fraction of plate positive-control activity (1 = 100%); conditions: for Score_SNARF: Appendix I, primary screening confirmation (SNARF5)
Procedure: Primary cultures of cerebrocortical astrocytes were obtained from 1-2-day-old OF1 mouse pups (Charles River Laboratories). Briefly, cortices were isolated and minced in small pieces under a dissecting microscope. The cells were incubated for 30 min at 37° C. in a solution containing 20 U/ml of papain enzyme (Worthington Biochemical), L-cysteine 1 mM (Sigma), and 10 kU/ml DNase I (Worthington Biochemical) for an enzymatic dissociation. Papain activity was stopped by the addition of fetal calf serum (FCS) to the solution, and a single-cell suspension was then obtained by mechanical dissociation, which consisted in cells trituration in a DMEM (D7777, Sigma-Aldrich) medium (supplemented with 44 mm NaHCO3, and 10 ml/L antibiotic/antimycotic solution) containing 10% FCS. The cells were seeded at an average density of 6×10^4 cells/cm^2 in poly-D-lysine-coated 96, 12 or 6-well culture plates, depending on their use, and incubated at 37° C. in a humidified atmosphere containing 5% CO2/95% air. Culture medium was renewed twice per week. Cells were stimulated and harvested between DIV14 and DIV17, when confluence and cell growth were optimal.
Secretion of lactate in a high-throughput screening (HTS) fashion was measured indirectly through the acidification of extracellular medium. To this end, primary astrocytes grown in 96-well plates for 17 days were stimulated with the compounds as listed herein.
After washing the cells twice with stimulation medium (DMEM (D5030, Sigma), 3 mM NaHCO3 and 5 mM Glucose) at 37° C., cells were stimulated with the compounds at a final concentration of 10 uM (1% DMSO final) in 50 ul per well of stimulation medium supplemented with 10 uM of the extracellular pH sensor SNARF-5F %-(AND-6)-CAR (Life Technologies Corporation). Each compound was tested in two different plates for duplicates.
After 90 min stimulation, fluorescence was read at exc. (excitation) 480 nm/emm. (emission) 580 nm and at exc 480 nm/emm. 630 nm. The ratio of fluorescence between 630 nm and 580 emission values, which represents extracellular pH, was calculated.
In each plate, 8 wells were used for negative controls (DMSO) and 8 wells were used for positive controls (CCCP 2 uM in DMSO). Z prime values were calculated for each of the plates tested and values<0 were discarded.
The average and SD of compounds' values tested in duplicates were calculated, and compound was noted as HIT when the difference between compound's average and negative control's average was greater than three times the sum of compound's SD and negative controls' SD. Only scores greater than 40% were considered as lead Hits for the CDC54K library; for the remaining libraries, all hits were considered. Scores are calculated as the % of activity compared to the positive control in each plate (which is 100%).
Primary screening hits were cherry picked on new plates and confirmed for SNARF5 effect, after having discarded those compounds that are fluorescent (exc. 480 nm/emm. 580 nm or 630 nm) before stimulation. Extracellular medium was next analyzed for extracellular lactate quantification for secondary screening.
Identification of lactate-enhancing drugs with high throughput screening (HTS) experiments on astrocytes primary cultures using extracellular pH dye (SNARF5F 5-(and-6)-carboxylic acid) for 90 min. The procedure is described in Material and Methods (2. Cell culture, 2.1. HTS for lactate secretion and 2.2. Extracellular lactate quantification).
The procedure was performed as follows: • Primary screening: acidification of the extracellular medium • Primary screening confirmation: acidification of the extracellular medium, removal of compounds with fluorescent activity at exc. 480 nm/emm. 580 nm or 630 n. • Secondary screening: dosage of extracellular lactate

[2] = system: primary astrocytes; experiment: Extracellular lactate quantification; format: cell-based, mouse; conditions: for Score_LACTATE: Appendix I, secondary screening: extracellular lactate
Summary of the method: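 Astrocytes were stimulated 90 min at 37 °C in D5030 medium with 5 mM glucose and 44 mM bicarbonate, with compound at 0-100 μM. Extracellular lactate was measured enzymatically with LDH/NAD in glycine-semicarbazide buffer, pH 10, for 1 h at 37 °C. NADH fluorescence (340/450 nm) was converted to lactate using an L-lactate standard curve.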

[3] = system: primary astrocytes; experiment: Intracellular glycogen quantification; format: cell-based, mouse; conditions: CDC54K hits, 10 μM, 3 h
Procedure: For glycogen dosage, a protein dosage was first performed in order to assess whether harvested astrocytes from primary cell cultures yielded enough and equivalent amounts of proteins comparing each replicate, and to ensure that the obtained differences in glycogen quantities were due to drug action and not to inner protein quantities.
Astrocytes used for these dosages were previously grown in 6-well plates for 17 days and stimulated with Vehicle (DMSO) or drug of interest (1 μM to 100 μM) for 180 min, at 37° C. 5% CO2/95% air in D5030 complete medium. Medium was removed and replaced with 600 μl of 30 mM Tris HCl, and stored at −20° C.
Proteins were dosed using the micro BCA Protein Assay kit (Thermo Scientific), as described in the manufacturer's instructions. Briefly, thawed cells were sonicated and 5 μl aliquots were placed in a transparent 96-well plate, to which we added 25 μl 30 mM Tris HCl, 70 μl H2O and 100 μl of a BCA mix (made as described in manufacturer's guidelines). After a 120 min-incubation at 37° C., absorbance was measured with Safire 2 spectrophotometer at a wavelength of 562 nm, and protein quantities were determined from a standard curve of Bovine Serum Albumin (BSA).
Glycogen was quantified using a 250 μl-aliquot of the same stimulated, thawed, and sonicated cells. After an incubation period of 30 min at 90° C. and 400 rpm, 28 μl of an acetic acid/sodium acetate (both from Sigma) 0.1M pH 4.6 buffer was added to each aliquot, which was then separated in two. Each split aliquot received whether 5 μl of amyloglucosidase (Roche) or 5 μl H2O, and all cell solutions were incubated for 120 min in a shaking 37° C.-waterbath. After a centrifugation at 16'000G for 5 min, 20 μl of supernatant were placed 96-well plate, to which 150 μl of a mix containing 0.67 mM ATP (Roche), 0.67 mM NADP (Roche), 1.8% hexokinase/glucose-6-phosphate dehydrogenase (Roche) and 0.1M Tris Buffer-HCl/3.3 mM magnesium (Fluka)/pH 8.1 buffer was added. Fluorescence was measured with Safire 2 spectrophotometer (340 nm excitation/440 nm emission). Glycogen concentration was obtained by substracting glucose value of samples with amyloglucosidase to samples without amyloglucosidase, and were expressed relative to the amount of proteins previously determined.
Levels of intracellular glycogen in astrocytes were measured at 3 h after stimulation with 20 Hits from the Prestwick library (10 μM each), as shown in FIG. 2. n=6-10; Ctrl pos. is glutamate (0.5 mM). Statistical analysis consisted in ANOVA followed by Fisher LSD post-hoc test for pair-wise comparisons.
Statistical analysis consisted in ANOVA followed by Fisher LSD post-hoc test for pair-wise comparisons.

[4] = system: primary astrocytes; experiment: MTT viability assay; format: cell-based; conditions: Mus musculus, Astrocyte, 0-200 uM, 24 h
Procedure: For cell toxicity determination, astrocytes in 96-well plates were stimulated 24 h (37° C. 5% CO2/95% air) with a gradient ranging from 0.1 to 200 μM of tested compounds. After stimulation, 5 mg/ml thiazol blue tetrazolium bromide (MTT, Sigma-Aldrich) in warm D5030 complete medium was added to each well, and cells were incubated for 4 h at 37° C. (5% CO2). The medium was then removed by aspiration, and the reaction was stopped by the addition of 50 μl DMSO per well.
The amount of reduced MTT (formazan) solubilized in DMSO was then determined spectrophotometrically using absorbance at 570 nm (Safire 2; Tecan).
MTT cellular viability assay was performed on astrocytes exposed to Preswtick Hits (concentrations ranging from 0 uM to 200 uM).
MTT cellular viability assay was performed on astrocytes exposed to CDC54K Hits (concentrations ranging from 0 uM to 200 uM).

[5] = system: primary astrocytes; experiment: Intracellular glycogen quantification, Example 2; format: cell-based, mouse; conditions: 10 μM, 3 h
Procedure: Astrocytes grown on 12-well plates were used for intracellular glycogen quantifications. Cells were stimulated with Vehicle (DMSO), with compounds of the invention (10 μM), or with a positive control for 180 min, at 37° C. 5% CO2/95% air in D5030 medium complemented with
5 mM D-glucose and 44 mM sodium bicarbonate (pH 7.2). […] At the end of the stimulation, medium was removed and replaced with 600 μl of 30 mM Tris HCl, and stored at −20° C.
First, the amount of proteins in each sample was quantified to assess whether harvested astrocytes from primary cell cultures yielded enough and equivalent amounts of proteins on each replicates. Proteins were quantified using the micro BCA Protein Assay kit (Thermo Scientific), according to manufacturer's instructions. Next, intracellular glycogen concentrations were quantified using a 250 μl-aliquot of the same stimulated, thawed, and sonicated cell lysate. After an incubation period of 30 min at 90° C. and 400 rpm, 28 μl of a 0.1M acetic acid/sodium acetate buffer (pH 4.6) was added to each lysate aliquots, which were then separated in two. Each split aliquots received either 5 μl of amyloglucosidase or H2O, and incubated for 120 min at 37° C. After centrifugation at 16'000G for 5 min, 20 μl of supernatant were placed in a 96-well plate, to which 150 μl of a mix containing 0.67 mM ATP, 0.67 mM NADP, 1.8% hexokinase/glucose-6-phosphate dehydrogenase in a 0.1M Tris Buffer-HCl/3.3 mM magnesium (pH 8.1) buffer was added. Fluorescence intensity (340 nm excitation/440 nm emission) was measured using a Safire 2 spectrophotometer. Glucose concentrations were assessed relative to a glucose standard curve, and glycogen concentrations were calculated by subtracting glucose values of samples that had received amyloglucosidase (i.e. that had degraded their glycogen stores) to samples that had not. Intracellular levels of glycogen, which is the main source of glucose storage in the brain, were analyzed in primary astrocytes after treatment with compounds of interest (10 μM, 3 h) (FIG. 5B), and compound GP-0157 (0.1, 1, 10 μM, 3 h) (FIG. 20).

[6] = ALS patients; cited from earlier work

Compound	Score_SNARF [1]	Score_LACTATE [2]	Glycogen (statistical significance of glycogen degradation) [3]	IC50 ([4]; CDC54K hits) [µM]	mobilization of intracellular glycogen [5]	also measured
Fc1ccc(-c2cc3n(n2)CCCN(Cc2ccncc2)C3)cc1 [T202-1455]	0.7839	0.6933	ns	> 200	–	–
O=S(=O)(Nc1cc(F)cc(F)c1)c1ccc2ccccc2c1 [T5884038]	0.8379	0.9262	–	–	significantly enhance	–
COc1ccc(Nc2nc(N3CCOCC3)c3ccccc3n2)cc1 [T0508-5190]	0.4029	0.2892	–	–	significantly enhance	–
COc1cccc(CNS(=O)(=O)c2ccc3c(c2)CCCN3C(C)=O)c1 [T5967389]	0.2789	0.4517	–	> 200	–	Score Lact. ([2]; Appendix II, CDC54K library): 0.45
COc1ccccc1NC(=O)Cc1nn(C)c(=O)c2ccccc12 [K851-0113]	0.7569	0.9281	ns	> 200	–	–
COc1ccccc1[N+]1=C2CCCCCN2C(O)(c2ccc(C)cc2)C1 (stereo not shown) [K404-0834]	1.022	1.613	–	–	significantly enhance	–
CC1=NN(c2ccccc2)C(=O)C1 [Ederavone, edaravone]	–	–	–	–	–	prolongation of patients' lifetime [6]: a few months only
Nc1nc2ccc(OC(F)(F)F)cc2s1 [Riluzole]	–	–	–	–	–	prolongation of patients' lifetime [6]: a few months only
CC(=O)c1cccc(NC(=O)C(C)Sc2ncnc3ccccc23)c1 (stereo not shown) [T0511-9200]	0.4866	0.7518	ns	> 200	–	–
C#C[C@]1(O)CC[C@H]2[C@@H]3[C@H](C)CC4=C(CCC(=O)C4)[C@H]3CC[C@@]21C [Tibolone]	–	–	–	–	–	Score ([1]; Prestwick library, 10 uM, 90 min, activity relative to positive control CCCP 2 uM): 0.2268; HTS Score (lactate) ([1]; Prestwick library, 10 uM, 90 min, relative to positive control CCCP 2 uM): 0.227; EC50 ([2]; Mus musculus, Astrocyte, 1.5 h, Prestwick hits, 0-100 μM, 90 min, read-out: Lactate EC50): 2240 nM; IC50 ([4]; Prestwick hits): 60.7 µM
